In brackets after ≈: the same amount, converted by molar mass. Activity calls are given as the source filed them. The rule behind the calls is not given here.
Legend:
Assay type in all cases: functional
[1] = tested on: L1210; experiment: Cytotoxicity against mouse L1210 cells
[2] = tested on: HCT-8; experiment: Cytotoxicity against human HCT8 cells
[3] = tested on: KB; experiment: Cytotoxicity against human KB cells
[4] = tested on: P388; experiment: Cytotoxicity against mouse P388 cells
[5] = tested on: A549; experiment: Cytotoxicity against human A549 cells
[6] = read-out: ED50 (the source's name)

SMILES	Activity [1]	Activity [2]	Activity [3]	Activity [4]	Activity [5]	EC50 [1, 6]	EC50 [2, 6]	EC50 [3, 6]	EC50 [4, 6]	EC50 [5, 6]
O[C@H]1c2ccccc2-c2c3c(cc4c2[C@@H]1NCC4)OCO3	inactive	inactive	inactive	inactive	inactive	–	–	–	–	–
COc1c(O)cc2c(c1OC)-c1nccc(C)c1C2=O	inactive	inactive	inactive	inactive	inactive	–	–	–	–	–
COc1cc2c(cc1OC)-c1nccc(C)c1C2=O	inactive	inactive	inactive	inactive	inactive	–	–	–	–	–
C[N+]1([O-])CCc2cc3c(c4c2[C@H]1[C@@H](O)c1ccccc1-4)OCO3 (stereo not given in full)	inactive	inactive	inactive	inactive	inactive	–	–	–	–	–
COc1cc2c(cc1O)C(=O)c1c(C)ccnc1-2	inactive	inactive	inactive	inactive	inactive	–	–	–	–	–
O=C1c2ccccc2-c2c3c(cc4ccnc1c24)OCO3 [LIRIODENINE]	–	–	–	–	–	2.33 µg/mL (≈ 8.46 µM)	0.7 µg/mL (≈ 2.54 µM)	1 µg/mL (≈ 3.63 µM)	0.57 µg/mL (≈ 2.07 µM)	0.72 µg/mL (≈ 2.62 µM)

— ChEMBL document CHEMBL1150187, “Two new natural azafluorene alkaloids and a cytotoxic aporphine alkaloid from Polyalthia longifolia” (1990)
